Assay results from publication PMC2684828 (Analytical chemistry, 2009).

Target: T1, Cytochrome P450cam (CYP101) (Pseudomonas putida, UniProt P00183)
T1 sequence (P00183 2-415): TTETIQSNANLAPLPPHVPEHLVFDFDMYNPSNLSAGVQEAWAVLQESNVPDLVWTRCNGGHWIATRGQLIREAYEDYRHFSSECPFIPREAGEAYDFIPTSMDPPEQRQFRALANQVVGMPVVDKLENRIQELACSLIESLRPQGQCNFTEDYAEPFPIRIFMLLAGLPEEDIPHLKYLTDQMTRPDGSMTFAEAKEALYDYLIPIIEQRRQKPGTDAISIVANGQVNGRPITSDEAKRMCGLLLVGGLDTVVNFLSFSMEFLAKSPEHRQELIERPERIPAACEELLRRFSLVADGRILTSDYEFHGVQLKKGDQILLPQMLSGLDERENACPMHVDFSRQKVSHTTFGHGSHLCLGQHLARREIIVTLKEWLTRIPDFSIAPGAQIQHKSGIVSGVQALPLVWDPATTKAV
Assay: enzyme/DNA film biosensor
Assay type: biochemical

Structure (SMILES) | Ki
O=C(O)Cc1c[nH]cn1 [Imid.4AA, imidazole-4-acetic acid] | 142 µM
c1c[nH]cn1 [Imid., imidazole] | 245 µM
